Measurements published in patent publication US20210403485A1, “PYRAZOLOPYRIMIDINE DERIVATIVE AS SELECTIVE TRK INHIBITOR” (SHANDONG LUYE PHARMACEUTICAL CO., LTD., priority 2018, published 2021).
Where two headings read alike, the source gives them in different places.

Tests used:
[1] = Pharmacokinetic test of compounds in rats (plasma, LC/MS/MS); assay type: in vivo, male SD rats; conditions: for AUC(0-t): read-out: Area under the curve AUC0-last
Protocol: Experimental purpose: male SD rats aged 7-9 weeks were selected as test animals, and the drug concentrations of the compounds in plasma at different time points after single intravenous injection (IV) and intragastric administration (PO) of the compounds were measured by an LC/MS/MS method, so that the pharmacokinetic behavior of the compounds disclosed herein in rats was studied, and the pharmacokinetic characteristic of the compounds was evaluated.
Drug preparation: the compounds were all prepared into clear solution by taking 5% DMSO+10% solutol+85% water as vehicle, and were used for administration in IV and PO groups. The dose of each compound administered was: IV, 3 mg/kg; PO, 10 mg/kg.

[2] = test system: Ba/F3 ETV6-NTRK3-G623R cells; test: Efficacy test in animals: subcutaneous xenograft, intragastric administration; assay type: in vivo, nude mice; conditions: 60 mg/kg qd
Protocol: (§1) Cells in the logarithmic growth phase were collected and resuspended in serum-free medium to a cell concentration of 2-4×10^7 cells/mL. An equal volume of matrigel was added to the cell suspension to achieve a final cell concentration of 1-2×10^7 cells/mL. 0.2 mL of tumor cell suspension was subcutaneously inoculated at the scapula of each nude mouse with the inoculation amount of 2-4×10^6 cells/mouse to prepare the animal models.

Ba/F3 ETV6-NTRK3 cells = test: as above; assay type: in vivo, nude mice; conditions: 60 mg/kg qd
Protocol: as §1

Structure (SMILES): O=C(Nc1cnn2ccc(N3CCC[C@@H]3c3cc(F)ccc3F)nc12)N1CC[C@H](O)C1 [LOXO-101, larotrectinib, reference compound]
- Apparent clearance Cl ([1]; IV, 3 mg/kg): 45.6 mL/min/kg
- Vd ([1]; male, SD, rat, plasma, IV, 3 mg/kg, read-out: Apparent volume of distribution Vd): 1.7 L/kg
- AUC(0-t) ([1]; male, SD, rat, plasma, IV, 3 mg/kg): 1.7 µM·h
- half-life ([1]; male, SD, rat, plasma, IV, 3 mg/kg, read-out: Half-life T1/2 (converted)): 36 min
- AUC(0-t) ([1]; male, SD, rat, plasma, PO, 10 mg/kg): 1.93 µM·h
- bioavailability ([1]; male, SD, rat, plasma, PO, 10 mg/kg, read-out: Bioavailability F %): 23%
- Cmax ([1]; male, SD, rat, plasma, PO, 10 mg/kg, read-out: Peak concentration Cmax): 944 nM
- Tmax ([1]; male, SD, rat, plasma, PO, 10 mg/kg, read-out: Time to peak Tmax): 48 min
- Tumor volume ([2]; Day 0): 200.39 ± 31.65 mm^3
- Tumor volume ([2]; Day 3): 552.34 ± 219.25 mm^3
- Tumor volume ([2]; Day 5): 1025.59 ± 347.93 mm^3
- Tumor volume ([2]; Day 7): 1349.08 ± 541.06 mm^3
- Tumor volume ([2]; Day 9): 1822.21 ± 755.31 mm^3
- Tumor volume ([2]; Day 11): 2375.84 ± 852.18 mm^3
- TGI (tumor growth inhibition rate) ([2]; day of dissection): 31.65%
- Tumor inhibition rate (by tumor weight) ([2]; end of the test): 25.27%
- Tumor weight ([2]; end of the test): 1.28 ± 0.62 g
- Tumor volume (Ba/F3 ETV6-NTRK3 cells; Day 0): 303.89 ± 50.02 mm^3
- Tumor volume (Ba/F3 ETV6-NTRK3 cells; Day 3): 510.07 ± 224.94 mm^3
- Tumor volume (Ba/F3 ETV6-NTRK3 cells; Day 5): 490.32 ± 170.06 mm^3
- Tumor volume (Ba/F3 ETV6-NTRK3 cells; Day 7): 731.42 ± 372.59 mm^3
- Tumor volume (Ba/F3 ETV6-NTRK3 cells; Day 9): 1289.62 ± 757.75 mm^3
- Tumor volume (Ba/F3 ETV6-NTRK3 cells; Day 11): 1361.88 ± 710.90 mm^3
- TGI (tumor growth inhibition rate) (Ba/F3 ETV6-NTRK3 cells; day of dissection): 63.87%
- Tumor inhibition rate (by tumor weight) (Ba/F3 ETV6-NTRK3 cells; end of the test): 63.49%
- Tumor weight (Ba/F3 ETV6-NTRK3 cells; end of the test): 0.64 ± 0.44 g
